Laboratory results from PubChem BioAssay AID1918940 (Molecular Pharmacology Branch, DTP, NCI, 2023).

System: NCI-H211 complex spheroid viability
Experiment: Anticancer human tumor NCI-H211 cell line growth inhibition [LSD1];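 further: luminescent viability read after seven days of drug exposure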;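 on viability, T/C: 100% = DMSO vehicle control viability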
Conditions: for IC50: curve of first compound; for viability, T/C: stronger effect = lower value
Outline: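 Complex spheroids of tumor cells with HUVEC and human MSCs, exposed to iadademstat combined with other agents. Each agent tested in half-log steps from near clinical Cmax (else 10 microM top), DMSO ≤0.25%.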

O=C(C=Cn1cnc(-c2cc(C(F)(F)F)cc(C(F)(F)F)c2)n1)NNc1cnccn1 + NC1CCC(NC2CC2c2ccccc2)CC1
IC50 (second compound 0.1 µM): < 3.16 nM
IC50 (second compound 0.316 µM): < 3.16 nM
IC50 (second compound 1 µM): < 3.16 nM
IC50 (second compound 3.16 µM): < 3.16 nM
IC50 (second compound 10 µM): < 3.16 nM
viability, T/C (second compound 0.1 µM, first compound 0.00316 µM): 33.4%
viability, T/C (second compound 0.1 µM, first compound 0.01 µM): 20.6%
viability, T/C (second compound 0.1 µM, first compound 0.0316 µM): 11.6%
viability, T/C (second compound 0.1 µM, first compound 0.1 µM): 6.71%
viability, T/C (second compound 0.1 µM, first compound 0.316 µM): 2.42%
viability, T/C (second compound 0.1 µM, first compound 1 µM): 1.48%
viability, T/C (second compound 0.316 µM, first compound 0.00316 µM): 40.1%
viability, T/C (second compound 0.316 µM, first compound 0.01 µM): 23.5%
viability, T/C (second compound 0.316 µM, first compound 0.0316 µM): 11.2%
viability, T/C (second compound 0.316 µM, first compound 0.1 µM): 6.77%
viability, T/C (second compound 0.316 µM, first compound 0.316 µM): 2.16%
viability, T/C (second compound 0.316 µM, first compound 1 µM): 8.93%
viability, T/C (second compound 1 µM, first compound 0.00316 µM): 41.4%
viability, T/C (second compound 1 µM, first compound 0.01 µM): 21.7%
viability, T/C (second compound 1 µM, first compound 0.0316 µM): 9.68%
viability, T/C (second compound 1 µM, first compound 0.1 µM): 5.65%
viability, T/C (second compound 1 µM, first compound 0.316 µM): 2.43%
viability, T/C (second compound 1 µM, first compound 1 µM): 1.5%
viability, T/C (second compound 3.16 µM, first compound 0.00316 µM): 32.9%
viability, T/C (second compound 3.16 µM, first compound 0.01 µM): 22.1%
viability, T/C (second compound 3.16 µM, first compound 0.0316 µM): 11%
viability, T/C (second compound 3.16 µM, first compound 0.1 µM): 5.74%
viability, T/C (second compound 3.16 µM, first compound 0.316 µM): 2.43%
viability, T/C (second compound 3.16 µM, first compound 1 µM): 1.51%
viability, T/C (second compound 10 µM, first compound 0.00316 µM): 24.4%
viability, T/C (second compound 10 µM, first compound 0.01 µM): 15.7%
viability, T/C (second compound 10 µM, first compound 0.0316 µM): 7.59%
viability, T/C (second compound 10 µM, first compound 0.1 µM): 3.68%
viability, T/C (second compound 10 µM, first compound 0.316 µM): 1.66%
viability, T/C (second compound 10 µM, first compound 1 µM): 1.3%

CCN(c1cc(-c2ccc(CN3CCOCC3)cc2)cc(C(=O)NCc2c(C)cc(C)[nH]c2=O)c1C)C1CCOCC1 + NC1CC1c1ccc(-c2cccc(O)c2)cc1
IC50 (second compound 0.1 µM): 205 nM
IC50 (second compound 0.316 µM): 69.4 nM
IC50 (second compound 1 µM): 114 nM
IC50 (second compound 3.16 µM): 127 nM
IC50 (second compound 10 µM): 139 nM
viability, T/C (second compound 0.1 µM, first compound 0.00949 µM): 74.4%
viability, T/C (second compound 0.1 µM, first compound 0.03 µM): 62.2%
viability, T/C (second compound 0.1 µM, first compound 0.0949 µM): 61.3%
viability, T/C (second compound 0.1 µM, first compound 0.3 µM): 43.7%
viability, T/C (second compound 0.1 µM, first compound 0.949 µM): 41%
viability, T/C (second compound 0.1 µM, first compound 3 µM): 40.9%
viability, T/C (second compound 0.316 µM, first compound 0.00949 µM): 84%
viability, T/C (second compound 0.316 µM, first compound 0.03 µM): 67.3%
viability, T/C (second compound 0.316 µM, first compound 0.0949 µM): 42.7%
viability, T/C (second compound 0.316 µM, first compound 0.3 µM): 48.8%
viability, T/C (second compound 0.316 µM, first compound 0.949 µM): 46.5%
viability, T/C (second compound 0.316 µM, first compound 3 µM): 36.3%
viability, T/C (second compound 1 µM, first compound 0.00949 µM): 83.4%
viability, T/C (second compound 1 µM, first compound 0.03 µM): 48.5%
viability, T/C (second compound 1 µM, first compound 0.0949 µM): 65.8%
viability, T/C (second compound 1 µM, first compound 0.3 µM): 38.1%
viability, T/C (second compound 1 µM, first compound 0.949 µM): 38.4%
viability, T/C (second compound 1 µM, first compound 3 µM): 30.3%
viability, T/C (second compound 3.16 µM, first compound 0.00949 µM): 79.3%
viability, T/C (second compound 3.16 µM, first compound 0.03 µM): 58.7%
viability, T/C (second compound 3.16 µM, first compound 0.0949 µM): 50.5%
viability, T/C (second compound 3.16 µM, first compound 0.3 µM): 46.3%
viability, T/C (second compound 3.16 µM, first compound 0.949 µM): 38.8%
viability, T/C (second compound 3.16 µM, first compound 3 µM): 27.4%
viability, T/C (second compound 10 µM, first compound 0.00949 µM): 70.3%
viability, T/C (second compound 10 µM, first compound 0.03 µM): 58.6%
viability, T/C (second compound 10 µM, first compound 0.0949 µM): 46.6%
viability, T/C (second compound 10 µM, first compound 0.3 µM): 51.7%
viability, T/C (second compound 10 µM, first compound 0.949 µM): 40.8%
viability, T/C (second compound 10 µM, first compound 3 µM): 32.1%
